The record followed here is PMC2364625, “Characterization and site-directed mutagenesis of Wzb, an O-phosphatase from Lactobacillus rhamnosus” (BMC Biochemistry, 2008).

Assay [1] concerns the target T1, Wzb (Lacticaseibacillus rhamnosus, UniProt Q58Z13).
T1 construct: 6His-tagged fusion, pQE30 (pGL387, wzb ORF in SacI-KpnI), E. coli NM522, purified under urea and renatured on Ni-NTA, 27 kDa; tag not reported as cut; forward primer starts at codon 2 (Ile)
T1 sequence (Q58Z13 2-254): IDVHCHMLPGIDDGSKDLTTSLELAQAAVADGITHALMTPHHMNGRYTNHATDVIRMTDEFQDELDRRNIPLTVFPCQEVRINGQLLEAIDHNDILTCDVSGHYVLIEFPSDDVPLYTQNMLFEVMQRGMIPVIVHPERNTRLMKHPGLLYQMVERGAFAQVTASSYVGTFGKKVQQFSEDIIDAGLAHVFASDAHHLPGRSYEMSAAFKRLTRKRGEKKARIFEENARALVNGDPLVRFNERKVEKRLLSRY
The experiment in a line: pNPP hydrolysis, absorbance at […] nm. The class given is biochemical. The following applies: inhibitor; increasing inhibition from 1 mM to 100 mM, no residual activity at 100 mM (data not shown); substrate pNPP.

The target of assay [2] is T1, Wzb. The experiment in a line: pNPP hydrolysis, absorbance at […] nm. Type of assay: biochemical. The following applies: 2.5 mM pNPP; MES-HEPES, 1% BSA; Cu2+ essential, Co2+ stimulates; optimum pH 7.3, 75 °C.

Take `[O]=[V]([OH])([OH])[OH]` [sodium orthovanadate]: the inhibition result against Wzb [1] is reported as “Wzb activity on pNPP was inhibited by sodium orthovanadate (Na3VO4)”.

For the molecule `O=[N+]([O-])c1ccc(OP(=O)(O)O)cc1` [p-nitrophenyl-phosphate], the “pNPP hydrolysis, absorbance at 405 nm” value on Wzb [2] is “The purified Wzb fusion protein was active on p-nitrophenyl-phosphate (pNPP)”.
